Results on 29 compounds are retold here after US7473790B2 (Pfizer Inc., priority 2003, dated 2009).

For the experiment, the target named is T1, HCV polymerase (Hepatitis C virus genotype 1b, UniProt P26663).
T1 construct: 2.5 pmoles (0.15 μg) HCV polymerase protein in a final volume of 75 μL
Put plainly: HCV polymerase primer/template-directed transcription assay (32P-GTP incorporation, filter binding). Particulars: for IC50: recombinant HCV polymerase, 30 minutes at 30° C., concentration giving 50% inhibition of polymerase-directed transcription, read-out: IC50. Format: biochemical. The method, boiled down:
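IC50s come from triplicate cpm, refit with an enzyme-concentration (30 nM) correction when under 200 nM. Reactions ran 30 min at 30° C in Tris pH 7.2 with MgCl2, 1 μM GTP spiked with α-32P-GTP, biotin-dG12 primer and poly(rC)300 template, with 1% DMSO. Incorporated label was collected on DE filtermats and counted.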

T1 sequence (P26663 2420-3010): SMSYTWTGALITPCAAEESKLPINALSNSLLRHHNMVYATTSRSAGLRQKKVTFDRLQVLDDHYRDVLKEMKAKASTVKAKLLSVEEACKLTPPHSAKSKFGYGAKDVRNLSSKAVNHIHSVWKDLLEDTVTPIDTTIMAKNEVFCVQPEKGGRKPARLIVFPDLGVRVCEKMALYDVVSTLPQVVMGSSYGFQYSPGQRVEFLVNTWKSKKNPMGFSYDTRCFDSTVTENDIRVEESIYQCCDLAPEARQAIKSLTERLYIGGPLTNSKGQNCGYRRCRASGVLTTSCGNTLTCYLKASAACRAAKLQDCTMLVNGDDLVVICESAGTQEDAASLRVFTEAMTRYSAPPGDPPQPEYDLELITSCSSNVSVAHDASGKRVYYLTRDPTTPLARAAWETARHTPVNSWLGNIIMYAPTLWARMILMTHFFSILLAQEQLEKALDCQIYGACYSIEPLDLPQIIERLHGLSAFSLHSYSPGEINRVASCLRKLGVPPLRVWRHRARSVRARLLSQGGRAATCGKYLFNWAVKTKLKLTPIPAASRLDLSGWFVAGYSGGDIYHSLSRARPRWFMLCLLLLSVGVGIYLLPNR

Take `Cc1cc(C)n2nc(CC3=C(O)CC(CCc4ccc(C5(C#N)CCCC5)c(F)c4)(C4CCCC4)OC3=O)nc2n1` (centres unmarked) [A(188), 1-(4-{2-[2-Cyclopentyl-5-(5,7-dimethyl-[1,2,4]triazolo[1,5-a]pyrimidin-2-ylmethyl)-4-hydroxy-6-oxo-3,6-dihydro-2H-pyran-2-yl]-ethyl}-2-fluoro-phenyl)-cyclopentanecarbonitrile]: the IC50 worked out at 6 nM. In the case of `Cc1cnc2nc(CC3=C(O)CC(CCc4cc(F)c(C(C)(C)C#N)c(F)c4)(C4CCCC4)OC3=O)nn2c1` (centres unmarked) [A(143), 2-(4-{2-[2-Cyclopentyl-4-hydroxy-5-(6-methyl-[1,2,4]triazolo[1,5-a]pyrimidin-2-ylmethyl)-6-oxo-3,6-dihydro-2H-pyran-2-yl]-ethyl}-2,6-difluoro-phenyl)-2-methyl-propionitrile], the IC50 came out at 9 nM. In the case of `Cc1nc(CC2=C(O)CC(CCc3ccc(OC(F)F)c(Cl)c3)(C3CCCC3)OC2=O)n(C)n1` (centres unmarked) [B(74), 6-{2-[3-Chloro-4-(difluoromethoxy)phenyl]ethyl}-6-cyclopentyl-3-[(1,3-dimethyl-1H-1,2,4-triazol-5-yl)methyl]-4-hydroxy-5,6-dihydro-2H-pyran-2-one], the IC50 was determined as 3400 nM. Same read-out and setting: the result for `COc1ccc(CCC2(C3CCCC3)CC(O)=C(Sc3nc(-c4ccccc4)cs3)C(=O)O2)cc1Cl` (centres unmarked) [C(106), 6-[2-(3-chloro-4-methoxyphenyl)ethyl]-6-cyclopentyl-4-hydroxy-3-[(4-phenyl-1,3-thiazol-2-yl)thio]-5,6-dihydro-2H-pyran-2-one] reads 240 nM; that for `COc1ccc(CCC2(C3CCCC3)CC(O)=C(Cc3cc(=O)[nH]c(-c4ccccn4)n3)C(=O)O2)cc1` (centres unmarked) [B(66), 6-({6-Cyclopentyl-4-hydroxy-6-[2-(4-methoxyphenyl)ethyl]-2-oxo-5,6-dihydro-2H-pyran-3-yl}methyl)-2-pyridin-2-ylpyrimidin-4(3H)-one], 220 nM. On to `CCC1(CC)CC(O)=C(Sc2nc3cc(Cl)ccc3n2C(C)C)C(=O)O1` [C(19), 3-(5-Chloro-1-isopropyl-1H-benzoimidazol-2-ylsulfanyl)-6,6-diethyl-4-hydroxy-5,6-dihydro-pyran-2-one], for which, for the setting “@ 50 uM compound, given where IC50 was impractical to calculate, read-out: percent inhibition”, the inhibition at 50 µM is 22%. On to `CCc1ccc(OC)c(CCC2(C3CCCC3)CC(O)=C(Cc3nc4nc(C)cc(C)n4n3)C(=O)O2)c1` (centres unmarked) [B(98), 6-Cyclopentyl-3-(5,7-dimethyl-[1,2,4]triazolo[1,5-a]pyrimidin-2-ylmethyl)-6-[2-(5-ethyl-2-methoxy-phenyl)-ethyl]-4-hydroxy-5,6-dihydro-pyran-2-one], for which the IC50 was found to be 6 nM. Same read-out and setting: to `CCn1cnnc1SC1=C(O)CC(CCc2ccc(OC)c(Cl)c2)(C2CCCC2)OC1=O` (centres unmarked) [C(35), 6-[2-(3-chloro-4-methoxyphenyl)ethyl]-6-cyclopentyl-3-[(4-ethyl-4H-1,2,4-triazol-3-yl)thio]-4-hydroxy-5,6-dihydro-2H-pyran-2-one] belongs 70 nM; to `CCc1cc(CCC2(C3CCCC3)CC(=O)CC(=O)O2)cc(CC)c1O` (centres unmarked) [A(235), 6-cyclopentyl-6-[2-(3,5-diethyl-4-hydroxyphenyl)ethyl]dihydro-2H-pyran-2,4(3H)-dione], 890 nM; to `CCOc1ccc(CCC2(C3CCCC3)CC(O)=C(Cc3nc4nc(C)cc(C)n4n3)C(=O)O2)cc1F` (centres unmarked) [B(02), 6-Cyclopentyl-3-(5,7-dimethyl-[1,2,4]triazolo[1,5-a]pyrimidin-2-ylmethyl)-6-[2-(4-ethoxy-3-fluoro-phenyl)-ethyl]-4-hydroxy-5,6-dihydro-pyran-2-one], 27 nM.

As for `Cc1cc(C(=O)NCC(C)(C)c2cccc(CCC3(C4CCCC4)CC(=O)CC(=O)O3)c2)oc1C` (centres unmarked) [A(73), 4,5-Dimethyl-furan-2-carboxylic acid (2-{3-[2-(2-cyclopentyl-4,6-dioxo-tetrahydro-pyran-2-yl)-ethyl]-phenyl}-2-methyl-propyl)-amide], the IC50 was determined as 3300 nM. As to `CNS(=O)(=O)c1ccc(CCC2(C3CCCC3)CC(=O)CC(=O)O2)cc1F` (centres unmarked) [A(85), 4-[2-(2-Cyclopentyl-4,6-dioxo-tetrahydro-pyran-2-yl)-ethyl]-2-fluoro-methyl-benzenesulfonamide], the IC50 amounted to 12400 nM. The same measure, in the same setting: to `O=C1OC(CCC#Cc2cccc(O)c2)(C2CCCC2)CC(O)=C1Sc1nccs1` (centres unmarked) [F(7), 6-Cyclopentyl-4-hydroxy-6-[4-(3-hydroxy-phenyl)-but-3-ynyl]-3-(thiazol-2-ylsulfanyl)-5,6-dihydro-pyran-2-one] belongs 7500 nM; to `CC(C)(C#N)c1ccc(CCC2(C3CCCC3)CC(O)=C(Cc3nc4ncc(Cl)cn4n3)C(=O)O2)cc1F` (single isomer, unassigned; (+)) [A(248), (+)-2-(4-{2-[5-(6-Chloro-[1,2,4]triazolo[1,5-a]pyrimidin-2-ylmethyl)-2-cyclopentyl-4,6-dioxo-tetrahydro-pyran-2-yl]-ethyl}-2-fluoro-phenyl)-2-methyl-propionitrile], 16 nM; to `CCOc1ccc2[nH]c(SC3=C(O)CC(CCc4ccc(OC)c(Cl)c4)(C4CCCC4)OC3=O)nc2c1` (centres unmarked) [C(59), 6-[2-(3-chloro-4-methoxyphenyl)ethyl]-6-cyclopentyl-3-[(5-ethoxy-1H-benzimidazol-2-yl)thio]-4-hydroxy-5,6-dihydro-2H-pyran-2-one], 200 nM. For the compound `Cc1cnc2nc(CC3C(=O)CC(CCc4ccc(C(C)(C)C#N)c(F)c4)(C4CCCC4)OC3=O)nn2c1` (single isomer, unassigned; (-)) [A(110), (−)-2-(4-{2-[2-Cyclopentyl-5-(6-methyl-[1,2,4]triazolo[1,5-a]pyrimidin-2-ylmethyl)-4,6-dioxo-tetrahydro-pyran-2-yl]-ethyl}-2-fluoro-phenyl)-2-methyl-propionitrile], the IC50 turned out to be 1 nM.

With `CCOc1ccc(CCC2(C3CCCC3)CC(O)=C(Cc3nc4nc(C)cc(C)n4n3)C(=O)O2)cc1CC` (centres unmarked) [B(99), 6-Cyclopentyl-3-(5,7-dimethyl-[1,2,4]triazolo[1,5-a]pyrimidin-2-ylmethyl)-6-[2-(4-ethoxy-3-ethyl-phenyl)-ethyl]-4-hydroxy-5,6-dihydro-pyran-2-one], the IC50 was 350 nM. Turning to `O=C1CC(=O)OC(CCc2ccccn2)(C2CCCC2)C1` (centres unmarked) [A(82), 6-Cyclopentyl-6-(2-pyridin-2-yl-ethyl)-dihydro-pyran-2,4-dione], under “@ 20 uM compound, given where IC50 was impractical to calculate, read-out: percent inhibition”, the inhibition at 20 µM is 11%. On to `O=C1CC(=O)OC(CCNC(=O)CCc2ccco2)(C2CCCC2)C1` (centres unmarked) [H(1), N-[2-(2-Cyclopentyl-4,6-dioxo-tetrahydro-pyran-2-yl)-ethyl]-3-furan-2-yl-propionamide], for which the half-inhibitory concentration (IC50) came out at 1000 nM. On to `N#CC1(c2ccc(CCC3(C4CCCC4)CC(=O)CC(=O)O3)cc2)CC1` (centres unmarked) [A(40), 1-{4-[2-(2-Cyclopentyl-4,6-dioxo-tetrahydro-pyran-2-yl)-ethyl]-phenyl}-cyclopropanecarbonitrile], for which the half-maximal inhibitory concentration (IC50) came to 2000 nM. On the same count and under the same terms, the result for `Cc1cc(C)n2nc(CC3=C(O)CC(CCc4ccc(C5(C#N)CCC5)c(F)c4)(C4CCCC4)OC3=O)nc2n1` (centres unmarked) [A(236), 1-(4-{2-[2-Cyclopentyl-5-(5,7-dimethyl-[1,2,4]triazolo[1,5-a]pyrimidin-2-ylmethyl)-4-hydroxy-6-oxo-3,6-dihydro-2H-pyran-2-yl]-ethyl}-2-fluoro-phenyl)-cyclobutanecarbonitrile] reads 3 nM; that for `CC(C)(C#N)c1ccc(CCC2(C3CCCC3)CC(=O)CC(=O)O2)cc1Cl` (centres unmarked) [A(147), 2-{2-Chloro-4-[2-(2-cyclopentyl-4,6-dioxo-tetrahydro-pyran-2-yl)-ethyl]-phenyl}-2-methyl-propionitrile], 1400 nM; that for `CCC(C#N)(CC)c1ccc(CCC2(C3CCCC3)CC(=O)CC(=O)O2)cc1F` (centres unmarked) [A(91), 2-{4-[2-(2-Cyclopentyl-4,6-dioxo-tetrahydro-pyran-2-yl)-ethyl]-2-fluoro-phenyl}-2-ethyl-butyronitrile], 500 nM. With `Cc1ccc(C#CCCC2(C3CCCC3)CC(=O)CC(=O)O2)cc1` (centres unmarked) [F(6), 6-Cyclopentyl-6-(4-p-tolyl-but-3-ynyl)-dihydro-pyran-2,4-dione], the IC50 is 83000 nM. Take `CCc1cccc(CCC2(C3CCCC3)CC(=O)CC(=O)O2)c1` (centres unmarked) [A(66), 6-Cyclopentyl-6-[2-(3-ethyl-phenyl)-ethyl]-dihydro-pyran-2,4-dione]: the IC50 was 3600 nM.

On to `COc1cc(OC)c(CCC2(C3CCCC3)CC(O)=C(Cc3nc4ccccc4c(=O)[nH]3)C(=O)O2)cc1Cl` (centres unmarked) [B(65), 2-({6-[2-(5-Chloro-2,4-dimethoxyphenyl)ethyl]-6-cyclopentyl-4-hydroxy-2-oxo-5,6-dihydro-2H-pyran-3-yl}methyl)quinazolin-4(3H)-one], for which the IC50 is 110 nM.

For the compound `COc1ccc(CCC2(C3CCCC3)CC(O)=C(Sc3nc4cc(Cl)ccc4[nH]3)C(=O)O2)cc1Cl` (centres unmarked) [C(49), 3-[(5-chloro-1H-benzimidazol-2-yl)thio]-6-[2-(3-chloro-4-methoxyphenyl)ethyl]-6-cyclopentyl-4-hydroxy-5,6-dihydro-2H-pyran-2-one], the 50% inhibitory concentration (IC50) is 80 nM.

As to `Cc1cc(C)n2nc(CC3=C(O)CC(CCc4cccc(C(C)(C)C)c4)(C4CCCC4)OC3=O)nc2n1` (centres unmarked) [B(03), 6-[2-(3-tert-Butyl-phenyl)-ethyl]-6-cyclopentyl-3-(5,7-dimethyl-[1,2,4]triazolo[1,5-a]pyrimidin-2-ylmethyl)-4-hydroxy-5,6-dihydro-pyran-2-one], the IC50 came out at 5 nM. Consider `Cc1nc(CC2=C(O)CC(CCc3ccc(OCC4CC4)c(Cl)c3)(C3CCCC3)OC2=O)n(C)n1` (centres unmarked) [B(70), 6-{2-[3-Chloro-4-(cyclopropylmethoxy)phenyl]ethyl}-6-cyclopentyl-3-[(1.3-dimethyl-1H-1,2,4-triazol-5-yl)methyl]-4-hydroxy-5,6-dihydro-2H-pyran-2-one], for which the IC50 was 240 nM.

What is called IC50 is the concentration needed to halve the response being measured. Usually inhibition stands for the drop in the measured response relative to a control, in per cent.
